Measurements as given in ChEMBL document CHEMBL1201862, “PubChem BioAssay data set” (2004).
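Following 48 hours of exposure in 96-well plates, responses at five concentrations were used to interpolate endpoints linearly. The concentration for 50% growth inhibition is given as GI50.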 The source made the active and inactive calls. No stated cut-off is given here; in the data, active = GI50 up to about 1.1 µM and inactive = higher.

Legend:
Experiment in all cases: NCI anticancer screen, dose series, 48 h
COLO 205 = test system: COLO 205
SF-268 = test system: SF-268
HOP-62 = test system: HOP-62
CAKI-1 = test system: CAKI-1
SF-295 = test system: SF-295
NCI-H226 = test system: NCI-H226
OVCAR-8 = test system: OVCAR-8
RPMI-8226 = test system: RPMI-8226
NCI-H460 = test system: NCI-H460
IGROV-1 = test system: IGROV-1
SK-MEL-2 = test system: SK-MEL-2
SK-OV-3 = test system: SK-OV-3
SW-620 = test system: SW-620
TK-10 = test system: TK-10
M14 = test system: M14
HCC 2998 = test system: HCC 2998
UACC-257 = test system: UACC-257
DMS-273 = test system: DMS-273
DLD-1 = test system: DLD-1
HOP-92 = test system: HOP-92

Measured: GI50

c1ccc(CSC2(SCc3ccccc3)CCCC2)cc1
inactive: COLO 205 > 10 µM | SF-268 > 10 µM | HOP-62 > 10 µM | CAKI-1 > 10 µM | SF-295 > 10 µM | NCI-H226 > 10 µM | OVCAR-8 > 10 µM | RPMI-8226 > 10 µM | NCI-H460 > 10 µM | IGROV-1 > 10 µM | SK-MEL-2 > 10 µM | SK-OV-3 > 10 µM | SW-620 > 10 µM | TK-10 > 10 µM | M14 > 10 µM | HCC 2998 > 10 µM

CC1(C)OP23(NC(=O)OC2(C(F)(F)F)c2ccccc2O3)OC1(C)C (stereo unspecified)
inactive: SF-268 > 100 µM | UACC-257 > 100 µM | SF-295 > 100 µM | NCI-H226 > 100 µM | DMS-273 > 100 µM | OVCAR-8 > 100 µM | NCI-H460 > 100 µM | DLD-1 > 100 µM | SK-MEL-2 > 100 µM | SK-OV-3 > 100 µM | TK-10 > 100 µM | M14 > 100 µM

C[Si](C)(C)/C=C/CN1C(=O)CCC1=O
inactive: COLO 205 > 100 µM | SF-268 > 100 µM | HOP-92 > 100 µM | DMS-273 > 100 µM | RPMI-8226 > 100 µM | NCI-H460 > 100 µM | IGROV-1 > 100 µM | DLD-1 > 100 µM | SK-MEL-2 > 100 µM | SK-OV-3 > 100 µM | SW-620 > 100 µM | TK-10 > 100 µM | M14 > 100 µM | HCC 2998 > 100 µM

COc1nc(SC)nc2c1cnn2C1OC(C(O)CO)C(OC)C1O (stereo unspecified)
inactive: COLO 205 > 74.5 µM | SF-268 > 92.7 µM | UACC-257 > 75.7 µM | HOP-62 > 100 µM | SF-295 > 100 µM | NCI-H226 > 100 µM | DMS-273 > 100 µM | OVCAR-8 > 100 µM | RPMI-8226 63.8 µM | NCI-H460 74.6 µM | IGROV-1 > 100 µM | DLD-1 > 100 µM | SK-MEL-2 > 100 µM | SK-OV-3 > 100 µM | SW-620 > 100 µM | HCC 2998 > 100 µM

COc1cc(C2C(C(=O)O)=C(CO)Oc3cc4c(cc32)OCO4)cc(OC)c1O (stereo unspecified)
inactive: COLO 205 > 100 µM | UACC-257 > 100 µM | HOP-62 > 100 µM | CAKI-1 > 100 µM | SF-295 > 100 µM | HOP-92 > 100 µM | DMS-273 > 100 µM | OVCAR-8 > 100 µM | RPMI-8226 > 100 µM | NCI-H460 > 100 µM | IGROV-1 > 100 µM | DLD-1 > 100 µM | SK-OV-3 > 100 µM | SW-620 > 100 µM | TK-10 > 100 µM | M14 > 100 µM

c1ccc(C(NC2=NCCO2)c2ccccc2)cc1
inactive: COLO 205 > 10 µM | SF-268 > 10 µM | HOP-62 > 10 µM | CAKI-1 > 10 µM | SF-295 9.33 µM | NCI-H226 > 10 µM | OVCAR-8 > 10 µM | RPMI-8226 > 10 µM | NCI-H460 > 10 µM | IGROV-1 > 10 µM | SK-MEL-2 > 10 µM | SK-OV-3 > 10 µM | SW-620 > 10 µM | TK-10 > 10 µM | M14 > 10 µM | HCC 2998 > 10 µM

Cc1nc2ccccc2n1C(=O)c1c(F)c(F)c(F)c(F)c1F
inactive: COLO 205 14.8 µM | SF-268 27 µM | UACC-257 13.7 µM | HOP-62 23.9 µM | CAKI-1 16.7 µM | SF-295 28.8 µM | NCI-H226 18.8 µM | HOP-92 11.7 µM | OVCAR-8 17.7 µM | RPMI-8226 4.15 µM | NCI-H460 5.09 µM | IGROV-1 19.1 µM | SK-MEL-2 7.41 µM | SK-OV-3 22.3 µM | SW-620 5.09 µM | TK-10 18.3 µM | M14 10.8 µM | HCC 2998 17.6 µM

CC(=O)OC(OC(C)=O)n1cc(C=O)c2ccccc21
inactive: COLO 205 > 100 µM | UACC-257 > 100 µM | HOP-62 > 100 µM | CAKI-1 > 100 µM | SF-295 > 100 µM | NCI-H226 > 100 µM | OVCAR-8 > 100 µM | RPMI-8226 > 100 µM | NCI-H460 > 100 µM | IGROV-1 > 10 µM | SK-MEL-2 > 100 µM | SK-OV-3 > 100 µM | SW-620 > 100 µM | TK-10 > 100 µM | M14 > 100 µM | HCC 2998 > 100 µM

ClCC1(CCl)COC1
inactive: COLO 205 > 100 µM | SF-268 > 100 µM | UACC-257 > 100 µM | SF-295 > 100 µM | NCI-H226 > 100 µM | HOP-92 > 100 µM | OVCAR-8 > 100 µM | NCI-H460 > 100 µM | SK-OV-3 > 100 µM | SW-620 > 100 µM | TK-10 > 100 µM | M14 > 100 µM | HCC 2998 > 100 µM

Cc1cc(C)n(C(=C(C(Cl)=C(Cl)Cl)[N+](=O)[O-])n2nc(C)cc2C)n1
inactive: COLO 205 2.08 µM | SF-268 4.23 µM | UACC-257 3.24 µM | HOP-62 5.04 µM | CAKI-1 3.23 µM | SF-295 3.85 µM | NCI-H226 5.66 µM | HOP-92 2.72 µM | OVCAR-8 3.06 µM | NCI-H460 3.52 µM | IGROV-1 4.03 µM | SK-MEL-2 1.37 µM | SK-OV-3 3.29 µM | SW-620 3.7 µM | TK-10 3.39 µM | M14 3.8 µM | HCC 2998 3.19 µM

CN(/N=C1\C(=O)Nc2ccccc21)c1ccccc1
inactive: COLO 205 > 10 µM | SF-268 43.2 µM | UACC-257 > 100 µM | HOP-62 49.7 µM | CAKI-1 22.1 µM | SF-295 40.7 µM | NCI-H226 > 100 µM | HOP-92 22.5 µM | OVCAR-8 26.4 µM | RPMI-8226 74.3 µM | NCI-H460 91.8 µM | IGROV-1 36.6 µM | SK-MEL-2 > 100 µM | SK-OV-3 > 100 µM | SW-620 > 100 µM | TK-10 69.2 µM | M14 74.6 µM | HCC 2998 > 100 µM

Cc1cnc(/N=c2\sc(C)cn2-c2ncc(C)s2)s1
inactive: COLO 205 > 100 µM | SF-268 > 100 µM | UACC-257 > 100 µM | HOP-62 > 100 µM | SF-295 > 100 µM | NCI-H226 > 100 µM | HOP-92 > 100 µM | OVCAR-8 > 100 µM | RPMI-8226 > 100 µM | NCI-H460 > 100 µM | IGROV-1 > 100 µM | SK-OV-3 > 100 µM | SW-620 > 100 µM | TK-10 > 100 µM | M14 > 100 µM | HCC 2998 > 100 µM

N#C/N=N/c1cc(Cl)c(/N=N/C#N)cc1Cl
inactive: COLO 205 97.5 µM | SF-268 > 100 µM | UACC-257 > 100 µM | HOP-62 > 100 µM | SF-295 > 100 µM | NCI-H226 > 100 µM | HOP-92 > 100 µM | DMS-273 > 100 µM | OVCAR-8 > 100 µM | NCI-H460 > 100 µM | IGROV-1 > 100 µM | DLD-1 > 100 µM | SK-MEL-2 > 100 µM | SK-OV-3 > 100 µM | SW-620 35.3 µM | TK-10 > 100 µM | M14 > 100 µM | HCC 2998 > 100 µM

CC(=O)C1CC[C@@H]2[C@H](CC[C@]3(C)[C@@H](O)CC[C@@H]23)[C@H]1C(=O)O (stereo partly specified)
inactive: COLO 205 > 100 µM | SF-268 > 100 µM | UACC-257 > 100 µM | HOP-62 > 100 µM | CAKI-1 > 100 µM | SF-295 > 100 µM | HOP-92 > 100 µM | OVCAR-8 > 100 µM | RPMI-8226 > 100 µM | NCI-H460 > 100 µM | IGROV-1 > 100 µM | SK-MEL-2 > 100 µM | SK-OV-3 > 100 µM | SW-620 > 100 µM | TK-10 > 100 µM | M14 > 100 µM | HCC 2998 > 100 µM

COC(=O)c1cn(CC(O)CCl)nn1 (stereo unspecified)
inactive: COLO 205 > 100 µM | SF-268 > 100 µM | UACC-257 > 100 µM | HOP-62 > 100 µM | CAKI-1 > 100 µM | HOP-92 > 100 µM | OVCAR-8 > 100 µM | RPMI-8226 > 100 µM | NCI-H460 > 100 µM | IGROV-1 > 100 µM | SK-MEL-2 > 100 µM | SW-620 > 100 µM | TK-10 > 100 µM | M14 > 100 µM | HCC 2998 > 100 µM

CC(=O)OCC1OC(n2c3c(c(-c4ccco4)c(C#N)c2=S)CCC3)C(OC(C)=O)C(OC(C)=O)C1OC(C)=O (stereo unspecified)
inactive: COLO 205 > 100 µM | SF-268 > 100 µM | UACC-257 > 100 µM | HOP-62 > 100 µM | CAKI-1 55.1 µM | SF-295 > 100 µM | HOP-92 15.6 µM | RPMI-8226 28.1 µM | NCI-H460 > 100 µM | IGROV-1 69.3 µM | SK-MEL-2 > 100 µM | SK-OV-3 > 100 µM | SW-620 55.8 µM | TK-10 69.3 µM | M14 > 100 µM | HCC 2998 > 100 µM

COc1c(Br)cc(CC(N)=O)c(O)c1Br
inactive: COLO 205 > 100 µM | SF-268 > 100 µM | UACC-257 > 100 µM | HOP-62 > 100 µM | CAKI-1 > 100 µM | SF-295 > 100 µM | NCI-H226 > 100 µM | HOP-92 > 100 µM | DMS-273 > 100 µM | OVCAR-8 > 100 µM | IGROV-1 > 100 µM | DLD-1 > 100 µM | SK-MEL-2 > 100 µM | SK-OV-3 > 100 µM | SW-620 > 100 µM | TK-10 > 100 µM | HCC 2998 > 100 µM
